Results on eight compounds are retold here after patent US12054510B2, “2′ and/or 5′ amino-acid ester phosphoramidate 3′-deoxy adenosine derivatives as anti-cancer compounds” (Nucana plc, priority 2014, dated 2024).

SMILES strings stand for the structures.

Assay type in all cases: cell-based
For data set [1], the system named is leukaemic stem cell (LSC) compartment within the KG1a cell line. Nature of the data set: Immunophenotypic identification of the leukaemic stem cell compartment. Conditions: 72 h; for targeting of LSCs (LSC as percentage of all viable cells left in culture): FIG. 2-4; for preferential targeting of LSCs compared with the parent nucleoside: compound A at 1 mM and above. As to the method:
KG1a cells were cultured for 72 h in the presence of a wide range of concentrations of each compound assayed. Cells were then harvested and labelled with a cocktail of anti-lineage antibodies (PE-cy7), anti-CD34 (FITC), anti-CD38 (PE) and anti-CD123 (PERCP cy5). The sub-population expressing a LSC phenotype were subsequently identified and were expressed as a percentage of all viable cells left in the culture. The percentages of stem cells remaining were then plotted on a dose-response graph and the effects of the compounds were compared with each other, and with the parent nucleoside.
The data obtained in these experiments were evaluated using one way ANOVA. All data was confirmed as Gaussian or a Gaussian approximation using the omnibus K2 test. LD50 values were calculated from the non-linear regression and line of best-fit analysis of the sigmoidal dose-response curves. All statistical analyses were performed using Graphpad Prism 6.0 software (Graphpad Software Inc., San Diego, CA).

Data set [2] deals with CCRF-CEM. Nature of the data set: CellTiterGlo cell viability assay, initial screening. The method, then:
(§1) In vitro viability assays were performed to assess the effects of compounds on cell viability in 7 selected cell lines over 72 hr using the CellTiterGlo (CTG, Promega-G7573) assay. The tests were performed in duplicates with treatment of compounds at 9 points, 3.16 folds titration in 96 well plates over ˜72 hr. The compound starting concentrations were […]. Cell viability assay using CellTiterGlo in 96-well plate were performed. The compound treatment was 72 hrs, under standard growth conditions, and in duplicate. Compounds were dissolved to 40 mM with thawed […]. Compounds were serially diluted at 3.16 fold in thawed DMSO, and warmed to 37° C. before being dissolved in media (2 μl+200 μl). After compounds were dissolved in media (media was also warmed to 37° C.). Media containing compounds were warmed to 37° C. in incubator and then compounds in media were added to cell plates (50 μl+50 μl), in duplicates. The compounds final concentrations were from […] to 19.9 nM. All compound solubilities were checked and recorded again, then the plates were transferred to CO2 tissue culture incubator immediately and incubated for 3 days. DMSO final concentration is 0.5%.
On the technique in general: Cellular ATP, detected with luciferase, serves as a proxy for viable cell number.

The subject of data set [3] is HL-60. Described as above. The conditions noted are these: for IC50: Homo sapiens, HL-60, 72 h, read-out: IC50 (relative IC50). The method, then: as §1
The test system of data set [4] is HepG2. The description is as above. The conditions noted are these: for M.I. %: maximum percentage inhibition of cell viability: HepG2, 72 hr, Table II. As to the method: as §1
In data set [5] the test system is K562. The data set is described as above. Conditions: 72 hr, Table II. The method, then:
as §1

For data set [6], the system named is KG-1. The data set is described as above. The method, then:
as §1

In data set [7] the test system is MCF-7. The description is as above. The conditions noted are these: MCF-7; 72 hr; Table II. As to the method: as §1
For data set [8], the system named is MOLT-4. Described as above. As to the method: as §1

The IC50 is the midpoint of a concentration-inhibition curve.

Take `C[C@H](NP(=O)(OC[C@@H]1C[C@@H](O)[C@H](n2cnc3c(N)nc(F)nc32)O1)Oc1ccccc1)C(=O)OCc1ccccc1` (mixture of isomers) [P, (2S)-benzyl 2-(((((2S,4R,5R)-5-(6-amino-2-fluoro-9H-purin-9-yl)-4-hydroxytetrahydrofuran-2-yl)methoxy)(phenoxy)phosphoryl)amino)propanoate]: in data set [1], the “targeting of LSCs (LSC as percentage of all viable cells left in culture)” value is reported as “preferential targeting of LSCs” and the “preferential targeting of LSCs compared with the parent nucleoside” value was “significantly improved when compared with the parental nucleoside”.
Turning to `C[C@H](NP(=O)(N[C@@H](C)C(=O)OCc1ccccc1)OC[C@@H]1CC(O)[C@H](n2cnc3c(N)ncnc32)O1)C(=O)OCc1ccccc1` (stereo in doubt) [Compound J, Benzyl 2-[({[5-(6-amino-9H-purin-9-yl)-4-hydroxyoxolan-2-yl]methoxy}({[1-(benzyloxy)-1-oxopropan-2-yl]amino})phosphoryl)amino]propanoate], the “M.I. %: maximum percentage inhibition of cell viability” value (shortened to “M.I. %: maximum percentage inhibition”) in data set [2] (human, 72 h) is recorded as 100%; in data set [3] (human, 72 h), 98%; in data set [4] it was 55%; in data set [5] it was 97%; in data set [6] (human, 72 h) it was 29%; in data set [7], 97%. Moreover, the “M.I. %: maximum percentage inhibition” value in data set [8] (human, 72 h) amounted to 100%.
In the case of `C[C@H](NP(=O)(Oc1cccc2ccccc12)O[C@@H]1C[C@@H](CO)O[C@H]1n1cnc2c(N)ncnc21)C(=O)OCc1ccccc1` (stereo partly drawn) [Compound I, (2S)-benzyl 2-(((((2R,3R,5S)-2-(6-amino-9H-purin-9-yl)-5-(hydroxymethyl)tetrahydro-furan-3-yl)oxy)(naphthalen-1-yloxy)phosphoryl)amino)propanoate], the “M.I. %: maximum percentage inhibition” value worked out at 99% in data set [2] (CCRF-CEM, 72 hr, Table II); 99% in data set [3] (HL-60, 72 hr, Table II); 90% in data set [4]; 87% in data set [5]; 93% in data set [6] (KG-1, 72 hr, Table II); 99% in data set [7]. For the same compound, the “M.I. %: maximum percentage inhibition” value in data set [8] (MOLT-4, 72 hr, Table II) was determined as 100%.
Take `C[C@H](NP(=O)(OC[C@@H]1C[C@H](O)[C@H](n2cnc3c(N)nc(F)nc32)O1)Oc1cccc2ccccc12)C(=O)OCc1ccccc1` (stereo partly drawn) [Compound O]: in data set [1], the “targeting of LSCs (LSC as percentage of all viable cells left in culture)” value was “able to bring about a reduction in the proportion of LSCs” and the “preferential targeting of LSCs compared with the parent nucleoside” value was “not significantly different to 2-F-Cordycepin”.
Regarding `CCCCCOC(=O)[C@H](CC(C)C)NP(=O)(OC[C@@H]1C[C@H](O)[C@H](n2cnc3c(N)nc(F)nc32)O1)Oc1cccc2ccccc12` (stereo partly drawn) [Compound Q, 2-Fluoro-3′-deoxyadenosine-5′-O-[1-naphthyhl(1-pentyloxy-L-leucinyl)]phosphate], in data set [1], the “targeting of LSCs (LSC as percentage of all viable cells left in culture)” value is on record as “preferential targeting of LSCs” and the “preferential targeting of LSCs compared with the parent nucleoside” value is on record as “significantly improved when compared with the parental nucleoside”.
For `C[C@H](NP(=O)(Oc1ccccc1)O[C@@H]1C[C@@H](CO)O[C@H]1n1cnc2c(N)ncnc21)C(=O)OCc1ccccc1` (stereo partly drawn) [G, (2S)-benzyl 2-(((((2R,3R,5S)-2-(6-amino-9H-purin-9-yl)-5-(hydroxymethyl)tetrahydro-furan-3-yl)oxy)(phenoxy)phosphoryl)amino)propanoate], the “M.I. %: maximum percentage inhibition” value in data set [2] (CCRF-CEM, 72 hr, Table II) is recorded as 65%; in data set [3] (HL-60, 72 hr, Table II) it was 57%; in data set [4], 67%; in data set [5], 78%; in data set [6] (KG-1, 72 hr, Table II), 63%; in data set [7], 97%. In addition, the “M.I. %: maximum percentage inhibition” value in data set [8] (MOLT-4, 72 hr, Table II) is recorded as 75%. Further, the IC50 in data set [3] was 15 to 100 µM; in data set [4] (Homo sapiens, HepG2, 72 h, read-out: IC50 (relative IC50)), 15 to 100 µM.
Regarding `C[C@H](NP(=O)(OC[C@@H]1C[C@@H](OP(=O)(N[C@@H](C)C(=O)OCc2ccccc2)Oc2ccccc2)[C@H](n2cnc3c(N)ncnc32)O1)Oc1ccccc1)C(=O)OCc1ccccc1` (stereo partly drawn) [H, Benzyl 2-(((((2S,4R,5R)-5-(6-amino-9H-purin-9-yl)-4-((((1-(benzyloxy)-1-oxopropan-2-yl)amino)(phenoxy)phosphoryl)oxy)tetrahydrofuran-2-yl)methoxy)(phenoxy)phosphoryl)-amino)propanoate], the “M.I. %: maximum percentage inhibition” value is listed as 100% in data set [2] (CCRF-CEM, 72 hr, Table II); 80% in data set [3] (HL-60, 72 hr, Table II); 55% in data set [4]; 89% in data set [5]; 69% in data set [6] (KG-1, 72 hr, Table II); 94% in data set [7]. Further, the “M.I. %: maximum percentage inhibition” value in data set [8] (MOLT-4, 72 hr, Table II) worked out at 100%. Moreover, the IC50 in data set [3] lay within 15 to 100 µM.
As for `CCCCCCOC(=O)[C@H](C)NP(=O)(OC[C@@H]1C[C@@H](O)[C@H](n2cnc3c(N)nc(F)nc32)O1)Oc1ccccc1` (stereo partly drawn) [R, (2S)-hexyl 2-(((((2S,4R,5R)-5-(6-amino-2-fluoro-9H-purin-9-yl)-4-hydroxytetrahydrofuran-2-yl)methoxy)(phenoxy)phosphoryl)amino)propanoate], in data set [1], the “targeting of LSCs (LSC as percentage of all viable cells left in culture)” value is listed as “preferential targeting of LSCs” and the “preferential targeting of LSCs compared with the parent nucleoside” value is “significantly improved when compared with the parental nucleoside”.
